Consider eleven molecules from ChEMBL document CHEMBL1201862, “PubChem BioAssay data set” (2004).

Structures are written as SMILES.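 Test compounds were applied to cells in 96-well plates for 48 hours at 5 doses. The concentration for 50% growth inhibition is given as GI50.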 Active and inactive are the calls of the source. Rule as the data show it: active = GI50 up to about 1.1 µM and inactive = higher. Some results are limits rather than exact numbers.

What all share (assay): DTP human tumour cell line panel, 48 h
The subject of test [1] is 786-0.
Test [2] relates to A549.
In test [3] the test system is BT-549.
Test [4] deals with CCRF-CEM.
Test [5] relates to HCT-116.
Test [6] has as its system HT-29.
Test [7] relates to M14.
In test [8] the test system is MOLT-4.
Test [9] deals with Malme-3M.
In test [10] the test system is NCI-H226.
For test [11], the system named is NCI-H522.
The test system of test [12] is OVCAR-3.
The test system of test [13] is OVCAR-5.
In test [14] the test system is OVCAR-8.
Test [15] deals with RPMI-8226.
For test [16], the system named is SF-539.
Test [17] has as its system SK-MEL-28.
Test [18] deals with SW-620.
Test [19] concerns T47D.
For test [20], the system named is DU-145.

As to `CCOC(=S)SCC(=O)O`, the GI50 (in general, the concentration giving 50% growth inhibition) is > 100 µM (inactive) in test [1]; > 100 µM (inactive) in [2]; > 100 µM (inactive) in test [3]; 1 µM (active) in [4]; > 100 µM (inactive) in test [5]; > 100 µM (inactive) in test [6]. Besides, the GI50 in [7], in test [8], in [9], in [10], in test [11] and in [12] was > 100 µM (inactive) throughout. Also, the GI50 in test [13], in test [14], in test [15], in [16], in test [17] and in test [18] was > 100 µM (inactive) in each case. The GI50 in test [19] is > 100 µM (inactive).

For `O=c1c2ccccc2nc2[nH][nH]c(=S)n12`, the GI50 in test [1], in test [2], in [3], in test [4], in [20] and in [5] was > 100 µM (inactive) each time. The GI50 is > 100 µM (inactive) in [6]; > 100 µM (inactive) in test [7]; 58.6 µM (inactive) in test [8]; > 100 µM (inactive) in test [10]; > 100 µM (inactive) in test [12]; > 100 µM (inactive) in [13]. The GI50 in [14], in test [15], in [16], in test [17], in test [18] and in test [19] was > 100 µM (inactive) each time.

Take `CN(CCCNC(=O)c1nn(-c2ccc(Cl)cc2Cl)c2c1ccc1ccccc12)CCCNC(=O)c1nn(-c2ccc(Cl)cc2Cl)c2c1ccc1ccccc12`: the GI50 in test [1] was 1.54 µM (inactive); in test [2], 1.63 µM (inactive); in test [4], 1.92 µM (inactive); in [20], 1.77 µM (inactive); in test [5], 1.67 µM (inactive); in [6] it was 1.57 µM (inactive). Besides, the GI50 was 1.6 µM (inactive) in [7]; 1.61 µM (inactive) in test [8]; 1.95 µM (inactive) in test [9]; 2.25 µM (inactive) in test [10]; 1.46 µM (inactive) in [11]; 1.72 µM (inactive) in test [12]. In addition, the GI50 in [13] is 1.89 µM (inactive); in test [14], 1.82 µM (inactive); in [15], 1.87 µM (inactive); in test [16] it was 1.76 µM (inactive); in test [17], 1.66 µM (inactive); in test [18], 2.26 µM (inactive). The GI50 in test [19] is 1.81 µM (inactive).

In the case of `Cc1ccc(S(=O)(=O)NC(=O)NC(CO)C(=O)O)cc1` (stereo not given), the GI50 in test [1], in [2], in test [3], in test [4], in test [20] and in test [5] was > 100 µM (inactive) in each case. The GI50 in [6], in test [7], in [8], in test [9], in [11] and in test [13] was > 100 µM (inactive) each time. Moreover, the GI50 in [14], in [15], in [16], in [17], in test [18] and in test [19] was > 100 µM (inactive) throughout.

Turning to `Cc1cc2[nH]c3c(C#N)c(-c4ccccc4)c(CN4CCOCC4)c(=O)n3c2cc1C`, the GI50 in [1], in test [2], in test [3], in test [4], in test [5] and in [7] was > 100 µM (inactive) in each case. Besides, the GI50 in [9], in test [10], in test [11], in test [12], in test [13] and in test [14] was > 100 µM (inactive) throughout. Moreover, the GI50 in test [15], in [16], in test [17], in test [18] and in test [19] was > 100 µM (inactive) each time.

For `COC(=O)n1c(C)c(C=O)c2ccc(OC)cc21`, the GI50 in test [1] is 36 µM (inactive); in test [2], 43.7 µM (inactive); in test [3], 26.7 µM (inactive); in test [4], 32.4 µM (inactive); in [20] it was 41.1 µM (inactive); in [5] it was 34.8 µM (inactive). For the same molecule, the GI50 in [6] is 33.3 µM (inactive); in test [7], 36.3 µM (inactive); in [8], 42.2 µM (inactive); in test [9], 99.8 µM (inactive); in [11] it was 38.5 µM (inactive); in [12] it was 59.6 µM (inactive). Further, the GI50 was 54.7 µM (inactive) in test [13], 81.7 µM (inactive) in [14], 21.9 µM (inactive) in test [16] and 72.3 µM (inactive) in [19].

As to `N#C/C(C(=O)Nc1ccccc1)=C(/N)N1CCCC1`, the GI50 in [1] was > 100 µM (inactive); in test [2], > 100 µM (inactive); in test [4], > 100 µM (inactive); in [20], > 100 µM (inactive); in [5], > 100 µM (inactive); in [6] it was 88.1 µM (inactive). For the same molecule, the GI50 in test [7], in [8], in test [9], in test [10], in test [11] and in test [12] was > 100 µM (inactive) each time. The GI50 in test [13], in test [14], in test [15], in [16], in test [17] and in test [18] was > 100 µM (inactive) throughout. The GI50 in [19] was 35.2 µM (inactive).

With `O=C(CCCN1CC=C(n2c(=O)[nH]c3ccccc32)CC1)c1cccs1`, the GI50 in test [1] is > 100 µM (inactive); in test [2], > 100 µM (inactive); in [4], > 100 µM (inactive); in test [20] it was > 100 µM (inactive); in test [5], > 100 µM (inactive); in test [6], 52.4 µM (inactive). The GI50 in test [7] is > 100 µM (inactive); in test [8], 45.6 µM (inactive); in test [9], > 100 µM (inactive); in [10] it was > 100 µM (inactive); in test [11], > 100 µM (inactive); in [12], > 100 µM (inactive). Moreover, the GI50 in test [13], in test [14], in [15], in test [16], in [17] and in test [18] was > 100 µM (inactive) in each case. For the same molecule, the GI50 in test [19] was > 100 µM (inactive).

Take `O=C(N/N=C\c1ccc([N+](=O)[O-])cc1)c1ccccc1Nc1ccccc1C(=O)N/N=C/c1ccc([N+](=O)[O-])cc1`: the GI50 is > 100 µM (inactive) in test [1]; > 100 µM (inactive) in test [2]; > 100 µM (inactive) in test [3]; 85.7 µM (inactive) in test [4]; > 100 µM (inactive) in [20]; > 100 µM (inactive) in test [5]. In addition, the GI50 in [6] is > 100 µM (inactive); in [7] it was 27.3 µM (inactive); in test [8], 66.2 µM (inactive); in test [9], 39.4 µM (inactive); in [10], > 100 µM (inactive); in test [12], > 100 µM (inactive). The GI50 was 76.4 µM (inactive) in test [13]; > 100 µM (inactive) in [14]; > 100 µM (inactive) in [15]; > 100 µM (inactive) in test [17]; > 100 µM (inactive) in test [18]; > 100 µM (inactive) in [19].

Take `CNC(=O)C(C)C1C(=O)/C(=C(O)/C=C\C(C)=C\C(C)C2OC3(C)OC(C=CC34CO4)C2C)C(=O)N1C1CCC(O)C(C)O1` (stereo not given): the GI50 in [1], in [2], in test [3], in test [4], in test [20] and in test [5] was > 100 µM (inactive) throughout. Further, the GI50 in test [6], in [7], in [8], in test [9], in test [12] and in test [13] was > 100 µM (inactive) in each case. Further, the GI50 in test [14], in test [15], in [16], in test [17], in test [18] and in test [19] was > 100 µM (inactive) throughout.

In the case of `O=[N+]([O-])c1ccc2[nH]c(=S)[nH]c(=S)c2c1`, the GI50 in test [1], in test [2], in test [4], in [20], in test [5] and in test [6] was > 100 µM (inactive) throughout. In addition, the GI50 in test [7], in test [8], in test [9], in [10], in test [11] and in test [12] was > 100 µM (inactive) in each case. Moreover, the GI50 in test [13] is > 100 µM (inactive); in test [14] it was > 100 µM (inactive); in [15] it was > 100 µM (inactive); in test [16] it was > 100 µM (inactive); in [17] it was > 100 µM (inactive); in [18], > 10 µM (inactive). For the same molecule, in [19], the GI50 was > 100 µM (inactive).
